Test [1] has as its system POLE. As to the kind of experiment: Titration nHU, Western blot, endogenous POLE in Jurkat extract. In kind it is binding, human. The settings on record: titration nHU, Jurkat extract. An excerpt: To identify the partners of NPF motifs, we used the native holdup (nHU) assay that was recently developed by our team (Fig. 1B). The holdup approach has been extensively used to determine equilibrium dissociation constants of transient interactions mediated by PDZ and SH3 domains, 14-3-3, and human papilloma virus E6 proteins, and even nucleic acid-protein interactions[7],[30]–[35]. In the nHU experiments, a purified bait molecule, or a control compound, is immobilized on a resin at high concentration (typically 10 μM, or higher) and these resin stocks are subsequently mixed with dilute cell extracts. After a relatively long incubation, i.e., 2 h at 4 °C, the liquid phase is separated by centrifugation. This liquid phase contains the unbound prey molecules at near binding equilibrium that can be quantified using selective and quantitative analytical approaches, such as mass spectrometry. Therefore, proteins that interact with the bait molecule will appear to be depleted in the solvent phase and by measuring its relative concentration compared to the control nHU experiment, the degree of binding (θ) can be determined that can be converted to apparent steady-state dissociation constants, according to:1 θ=1−Ifree/Itot=Cbait/Cbait+Kapp where Itot and Ifree are the measured total and bait-depleted equilibrium mass spectrometry total ion intensities of prey proteins, Cbait is the bait molecule concentration and Kapp is the apparent dissociation constant.
Jurkat E6.1 cells (ECACC #88042803, RRID: CVCL_0367) were grown in RPMI (Gibco) medium completed with 10% FBS (Gibco BRL) and 40 μg/ml gentamicin (Gibco/Life Technology). To prepare total cell extracts, Jurkat cells were seeded onto T-175 flasks and grew until 3 × 10^6 cells/ml confluency. Cells were collected by 1000 g x 5 min centrifugation, washed with PBS and then lysed in ice-cold lysis buffer (Hepes-KOH pH 7.5 50 mM, NaCl 150 mM, Triton X-100 1%, cOmplete EDTA-free protease inhibitor cocktail 5x, TCEP 5 mM, glycerol 10%).
Cell suspensions were sonicated 4×20 sec with 1 sec long pulse on ice, then incubated rotating at 4 °C for 30 min. The lysates were centrifuged at 12,000 rpm 4 °C for 20 min and supernatant was kept. Total protein concentration was measured by standard Bradford method (Bio-Rad Protein Assay Dye Reagent #5000006) using a BSA calibration curve (MP Biomedicals #160069, diluted in lysis buffer) on a Bio-Rad SmartSpec 3000 spectrophotometer instrument.
Titration holdup experiments were carried out as described above using 25 μl saturated resins prepared. Briefly, we mixed control, or bait-saturated resins at various proportions by keeping the total resin amount and resin-analyte ratio constant during the experiment (for 25 μl we used 100 μl cell extract as analyte). In titration experiments with protein baits, bait concentration was determined as described above for the saturated resin stocks. Experiments were carried out at 4 °C for 2 h and recovered supernatants were subjected to western blot or dot blot analysis.
For Western blot, samples were mixed with 4x Laemmli Sample Buffer in 3:1 ratio. Equal amounts of samples were loaded on 6-10% acrylamide-gels (generally 16 μg). Transfer was done into PVDF membranes using a Trans-Blot Turbo Transfer System and Trans-Blot Turbo RTA Transfer Kit (BioRad, #1704275). For Dot blot, nHU samples were directly loaded on Nitrocellulose membranes using 48 Sample vacuum manifold (Cleaver Scientific) following the manufacturer’s recommendations.
After 1 h of blocking in 5% milk, membranes were incubated overnight at 4 °C with primary antibodies in 5% milk-TBS-Tween.
On the technique in general: In western blotting, separated proteins are transferred to a membrane and probed.

Test [2] deals with POLE. The test is described as follows: nHU-MS peptide bait, prey POLE. The settings on record: FigureS2 Volcano.
Test [3] concerns the target T1, EHD1 (Homo sapiens, UniProt Q9H4M9).
T1 sequence (Q9H4M9 1-534): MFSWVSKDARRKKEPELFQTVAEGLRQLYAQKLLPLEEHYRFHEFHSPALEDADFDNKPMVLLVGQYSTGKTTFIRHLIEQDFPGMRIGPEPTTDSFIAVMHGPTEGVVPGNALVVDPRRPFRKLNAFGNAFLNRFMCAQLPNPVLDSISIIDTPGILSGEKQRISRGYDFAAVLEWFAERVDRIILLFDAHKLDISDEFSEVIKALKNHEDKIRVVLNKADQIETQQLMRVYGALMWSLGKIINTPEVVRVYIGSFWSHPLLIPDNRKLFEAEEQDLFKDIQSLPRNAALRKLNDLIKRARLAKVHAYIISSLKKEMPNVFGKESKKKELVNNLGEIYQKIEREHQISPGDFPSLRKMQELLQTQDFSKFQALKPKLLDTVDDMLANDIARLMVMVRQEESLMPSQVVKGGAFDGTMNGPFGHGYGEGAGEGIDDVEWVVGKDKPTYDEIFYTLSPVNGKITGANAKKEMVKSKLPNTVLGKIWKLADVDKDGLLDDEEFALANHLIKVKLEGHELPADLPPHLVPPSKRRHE
The test is described as follows: nHU-MS peptide bait, prey EHD1. The settings on record: FigureS2 Volcano; prey EHD1.

Test [4] addresses T2, PPP2R2A (Homo sapiens, UniProt P63151).
T2 sequence (P63151 1-447): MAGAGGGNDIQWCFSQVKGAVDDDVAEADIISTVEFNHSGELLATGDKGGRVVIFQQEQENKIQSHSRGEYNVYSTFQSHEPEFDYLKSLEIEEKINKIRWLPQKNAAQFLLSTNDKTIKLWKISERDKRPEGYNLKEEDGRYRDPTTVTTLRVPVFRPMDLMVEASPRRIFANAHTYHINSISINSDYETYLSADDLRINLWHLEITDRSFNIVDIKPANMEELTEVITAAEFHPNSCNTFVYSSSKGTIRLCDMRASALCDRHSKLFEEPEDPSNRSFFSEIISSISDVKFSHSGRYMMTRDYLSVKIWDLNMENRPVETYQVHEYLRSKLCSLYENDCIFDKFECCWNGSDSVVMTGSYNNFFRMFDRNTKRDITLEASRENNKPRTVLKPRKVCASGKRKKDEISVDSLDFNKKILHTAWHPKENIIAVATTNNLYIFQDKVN
The test is described as follows: nHU-MS peptide bait, prey PPP2R2A. Conditions: FigureS2 Volcano.

As for TSETSK [SYNJ1], the “weaker POLE binding than the DONSON motif” value in test [1] is recorded as ~ 6 fold. For the same substance, the results for the log2FC in test [2], in test [3] and in test [4] were -0.4452, -0.4973 and -0.4164, respectively. Further, the “-log10P” value is 14.1958 in test [3] and 6.763 in test [4].

These data come from paper PMC12808100, “The non-catalytic DNA polymerase ε subunit is an NPF motif recognition protein” (Nature Communications, 2025).
